Test results taken from ChEMBL document CHEMBL5137118, “Zamamiphidins B and C, Manzamine-Related Alkaloids from an Amphimedon sp. Marine Sponge Collected in Okinawa” (J Nat Prod, 2022).

Assays:
KB = test: Cytotoxicity against human KB cells assessed as inhibition of cell growth; type: functional, cell-based
L1210 = test: Cytotoxicity against mouse L1210 cells assessed as inhibition of cell growth; type: functional, cell-based
Acetylcholinesterase = Acetylcholinesterase (Electrophorus electricus, UniProt O42275); test: Inhibition of electric eel AChE using acetylthiocholine iodide as substrate preincubated for 30 mins followed by substrate addition and measured after 5 mins by DTNB-reagent based Ellman's method
Chain of Acetylcholinesterase (O42275 whole entry): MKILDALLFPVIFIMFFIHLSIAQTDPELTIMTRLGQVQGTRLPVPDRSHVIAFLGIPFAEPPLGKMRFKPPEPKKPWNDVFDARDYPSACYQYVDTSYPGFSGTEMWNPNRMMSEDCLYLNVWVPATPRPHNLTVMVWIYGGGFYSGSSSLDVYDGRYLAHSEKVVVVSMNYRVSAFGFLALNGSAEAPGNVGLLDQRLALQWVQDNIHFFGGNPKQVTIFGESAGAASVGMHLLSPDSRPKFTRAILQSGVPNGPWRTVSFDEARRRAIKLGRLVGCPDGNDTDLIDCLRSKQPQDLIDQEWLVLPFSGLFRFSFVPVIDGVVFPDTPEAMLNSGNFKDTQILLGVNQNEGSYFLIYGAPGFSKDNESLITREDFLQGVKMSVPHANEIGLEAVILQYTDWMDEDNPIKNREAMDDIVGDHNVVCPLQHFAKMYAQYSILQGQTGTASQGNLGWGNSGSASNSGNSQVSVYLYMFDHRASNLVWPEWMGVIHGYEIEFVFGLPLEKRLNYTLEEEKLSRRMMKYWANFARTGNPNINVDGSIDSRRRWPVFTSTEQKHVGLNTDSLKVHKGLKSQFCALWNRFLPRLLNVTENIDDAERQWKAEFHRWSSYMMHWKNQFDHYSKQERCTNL

SMILES | IC50 (KB) | IC50 (L1210) | IC50 (Acetylcholinesterase)
O[C@@H]1CCCC[N+]23C[C@@H]4C=C5CC/C=C\CCCCN6CC[C@@H]4[C@](CC[C@H]12)(C6)[C@H]53 | > 10 µg/mL | > 10 µg/mL | 470 µM
O[C@H]1CCCC[N+]23C[C@@H]4C=C5CC/C=C\CCCCN6CC[C@@H]4[C@](CC[C@H]12)(C6)[C@H]53 | > 10 µg/mL | > 10 µg/mL | 350 µM
